Experimental data published in US20220324865A1 (Bayer Aktiengesellschaft, priority 2018, published 2022).

target: T1, human EP3 receptor (Homo sapiens, UniProt P43115); assay: Cellular in vitro assay for determining EP3 receptor activity (human EP3 cell line, sulprostone-stimulated calcium luminescence); type: cell-based; conditions: CHO cells expressing human EP3 and mitochondrial Clytin; antagonist mode, sulprostone at EC50; read-out: EP3 CHO mtCLY ANTAG IC50
T1 construct: expressed in transfected cells; host or cells: CHO K1 (Chinese Hamster Ovary), stably co-transfected with Galpha16 and mitochondrial clytin
T1 sequence (P43115 1-390): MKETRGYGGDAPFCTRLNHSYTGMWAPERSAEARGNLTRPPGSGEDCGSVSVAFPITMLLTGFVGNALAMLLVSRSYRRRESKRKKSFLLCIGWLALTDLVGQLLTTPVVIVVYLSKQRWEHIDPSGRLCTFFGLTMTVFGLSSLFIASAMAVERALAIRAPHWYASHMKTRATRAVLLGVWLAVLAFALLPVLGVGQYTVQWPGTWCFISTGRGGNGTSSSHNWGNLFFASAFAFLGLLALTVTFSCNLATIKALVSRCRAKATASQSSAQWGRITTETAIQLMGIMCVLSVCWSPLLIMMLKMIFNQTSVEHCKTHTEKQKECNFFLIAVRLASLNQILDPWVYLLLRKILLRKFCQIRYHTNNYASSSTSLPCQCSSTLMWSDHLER
How it was run: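 Antagonist activity was measured as inhibition of the luminescent calcium signal elicited by EC50 sulprostone, following 10 min compound pretreatment. The cell line was recombinant CHO K1 co-expressing human EP3, Gα16 and the photoprotein Clytin, reconstituted with coelenterazine.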

COc1ccc([C@@H](C)NC(=O)c2nn3cc(-c4ccc(Cl)c(Cl)c4)[nH]c(=O)c3c2C2CC2)cn1 [6-426] and CC(C)(O)[C@@H](NC(=O)c1nn2cc(-c3ccc(Cl)c(Cl)c3)[nH]c(=O)c2c1C1CCC1)c1ccc(F)cc1 [6-568] are within 1.5-fold of each other in IC50: 0.82 nM for the first, 1.05 nM for the second.

Compared with CCn1ccc(C(C)NC(=O)c2nn3c(C)c(-c4ccc5ccccc5c4)[nH]c(=O)c3c2C)n1 (stereo not shown) [Example 3-4, N-[1-(1-Ethylpyrazol-3-yl)ethyl]-3,7-dimethyl-6-(2-naphthyl)-4-oxo-5H-pyrazolo[1,5-a]pyrazine-2-carboxamide], Cc1c(C(=O)Nc2ccnn2C(C)C)nn2c(C)c(-c3ccc4ccccc4c3)[nH]c(=O)c12 [Example 3-6, 3,7-Dimethyl-6-(naphthalen-2-yl)-4-oxo-N-[1-(propan-2-yl)-1H-pyrazol-5-yl]-4,5-dihydropyrazolo[1,5-a]pyrazine-2-carboxamide] is 1.8-fold higher in IC50: 2.6 nM for the first, 4.75 nM for the second.

First: CC(NC(=O)c1cc2c(=O)[nH]c(-c3ccc4ccccc4c3)cn2n1)c1ccc(OCC(F)(F)F)cn1 (stereo not shown) [6-6]
Second: CC(NC(=O)c1cc2c(=O)[nH]c(-c3ccc4ccccc4c3)cn2n1)c1ccn(C)n1 (stereo not shown) [Example 2-49, N-[1-(1-Methyl-1H-pyrazol-3-yl)ethyl]-6-(2-naphthyl)-4-oxo-4,5-dihydropyrazolo[1,5-a]pyrazine-2-carboxamide]
The IC50 of the first is 3.1-fold lower: 2.8 nM for the first, 8.6 nM for the second. The first is the more potent here.

Going from C[C@@H](NC(=O)c1cc2c(=O)[nH]c(-c3ccc4c(c3)CCCC4)cn2n1)c1ccc(F)cc1 [Example 1-101, N-[(1R)-1-(4-Fluorophenyl)ethyl]-4-oxo-6-(5,6,7,8-tetrahydronaphthalen-2-yl)-4,5-dihydropyrazolo[1,5-a]pyrazine-2-carboxamide] to CC(C)(O)[C@@H](NC(=O)c1cc2c(=O)[nH]c(-c3ccc4c(c3)CCCC4)cn2n1)c1ccc(F)cc1 [Example 1-133, N-[(1S)-1-(4-Fluorophenyl)-2-hydroxy-2-methylpropyl]-4-oxo-6-(5,6,7,8-tetrahydronaphthalen-2-yl)-4,5-dihydropyrazolo[1,5-a]pyrazine-2-carboxamide], the IC50 rises from 1.7 nM to 2.8 nM (1.6-fold).

O=C(NC(c1ccccc1)C(F)F)c1cc2c(=O)[nH]c(-c3ccc4ccccc4c3)cn2n1 (stereo not shown) [Example 2-4, N-(2,2-Difluoro-1-phenylethyl)-6-(2-naphthyl)-4-oxo-4,5-dihydropyrazolo[1,5-a]pyrazine-2-carboxamide] and COc1ccccc1C(C)NC(=O)c1cc2c(=O)[nH]c(-c3ccc4ccccc4c3)cn2n1 (stereo not shown) [Example 2-8, N-[1-(2-Methoxyphenyl)ethyl]-6-(2-naphthyl)-4-oxo-4,5-dihydropyrazolo[1,5-a]pyrazine-2-carboxamide] are within 1.5-fold of each other in IC50: 1.07 nM for the first, 1.2 nM for the second.

Cc1ccc(-c2cn3nc(C(=O)NC(C)C(O)C(F)(F)F)cc3c(=O)[nH]2)cc1C (stereo not shown) [6-355] and Cc1cc(-c2cn3nc(C(=O)NC(C)c4ccccc4OC(F)F)cc3c(=O)[nH]2)ccc1C(F)(F)F (stereo not shown) [6-33] are within 1.5-fold of each other in IC50: 5.8 nM for the first, 8.15 nM for the second.

First: Cc1cccc2ncc(-c3cn4nc(C(=O)NCC(C)Cn5cccn5)c(C(C)C)c4c(=O)[nH]3)cc12 (stereo not shown) [Example 4-30, 3-Isopropyl-N-[2-methyl-3-(1H-pyrazol-1-yl)propyl]-6-(5-methylquinolin-3-yl)-4-oxo-4,5-dihydropyrazolo[1,5-a]pyrazine-2-carboxamide]
Second: Cc1cc(C)n(C(CNC(=O)c2cc3c(=O)[nH]c(-c4ccc5ccccc5c4)cn3n2)C(C)C)n1 (stereo not shown) [Example 2-19, N-[2-(3,5-Dimethyl-1H-pyrazol-1-yl)-3-methylbutyl]-6-(2-naphthyl)-4-oxo-4,5-dihydropyrazolo[1,5-a]pyrazine-2-carboxamide]
The IC50 of the first is 2.9-fold lower: 2.7 nM for the first, 7.9 nM for the second. The first is the more potent here.

First: COc1ccc([C@@H](C)NC(=O)c2cc3c(=O)[nH]c(-c4ccc5c(c4F)OCCO5)c(F)n3n2)cn1 [Example 1-111, 7-Fluoro-6-(5-fluoro-2,3-dihydro-1,4-benzodioxin-6-yl)-N-[(1R)-1-(6-methoxypyridin-3-yl)ethyl]-4-oxo-4,5-dihydropyrazolo[1,5-a]pyrazine-2-carboxamide]
Second: CC(C)(O)[C@@H](NC(=O)c1nn2cc(-c3ccc4c(c3)OCCO4)[nH]c(=O)c2c1C1CC1)c1ccc(F)cc1 [6-466]
The IC50 of the first is 1.6-fold higher: 8.8 nM for the first, 5.4 nM for the second.

Going from Cc1ccc(-c2cn3nc(C(=O)N[C@@H](c4ccc(F)cc4)C(C)(C)O)c(C)c3c(=O)[nH]2)c(F)c1F [Example 1-163, 6-(2,3-Difluoro-4-methylphenyl)-N-[(1S)-1-(4-fluorophenyl)-2-hydroxy-2-methylpropyl]-3-methyl-4-oxo-4,5-dihydropyrazolo[1,5-a]pyrazine-2-carboxamide] to Cc1ccc(-c2cn3nc(C(=O)N[C@@H](c4ccc(F)cc4)C(C)(C)O)c(C4CCC4)c3c(=O)[nH]2)cc1F [6-573], the IC50 falls from 7.8 nM to 1.25 nM (6.2-fold).

O=C(NC(CN1CCCC1)c1ccc(F)cc1)c1cc2c(=O)[nH]c(-c3ccc4ccccc4c3)cn2n1 (stereo not shown) [Example 1-44, N-[1-(4-Fluorophenyl)-2-(pyrrolidin-1-yl)ethyl]-6-(2-naphthyl)-4-oxo-5H-pyrazolo[1,5-a]pyrazine-2-carboxamide] and Cc1cnn(CC(C)NC(=O)c2cc3c(=O)[nH]c(-c4ccc5ccccc5c4)cn3n2)c1 (stereo not shown) [Example 2-29, N-[1-(4-Methyl-1H-pyrazol-1-yl)propan-2-yl]-6-(2-naphthyl)-4-oxo-4,5-dihydropyrazolo[1,5-a]pyrazine-2-carboxamide] are within 1.5-fold of each other in IC50: 8.97 nM for the first, 7.25 nM for the second.

First: CC[C@@H](C)NC(=O)c1nn2cc(-c3ccc4ccccc4c3)[nH]c(=O)c2c1C(F)(F)F [6-511]
Second: COC[C@H](C)NC(=O)c1nn2cc(-c3ccc4ccccc4c3)[nH]c(=O)c2c1C(F)(F)F [6-515]
The IC50 of the first is 5.1-fold lower: 0.59 nM for the first, 3 nM for the second. The first is the more potent here.

First: Cc1cc(-c2cn3nc(C(=O)N[C@@H](c4ccc(F)cc4)C(C)(C)O)c(C4CC4)c3c(=O)[nH]2)ccc1Cl [Example 1-173, 6-(4-Chloro-3-methylphenyl)-3-cyclopropyl-N-[(1S)-1-(4-fluorophenyl)-2-hydroxy-2-methylpropyl]-4-oxo-4,5-dihydropyrazolo[1,5-a]pyrazine-2-carboxamide]
Second: Cc1ccc(-c2cn3nc(C(=O)N[C@@H](c4ccccc4)C(C)(C)O)c(C4CC4)c3c(=O)[nH]2)cc1F [6-385]
The IC50 of the first is 1.8-fold lower: 0.73 nM for the first, 1.3 nM for the second. The first is the more potent here.

Going from Cc1c(C(=O)N[C@@H](c2ccc(F)cc2)C(C)(C)O)nn2c(C)c(-c3ccc4ccccc4c3)[nH]c(=O)c12 [6-604] to Cc1c(C(=O)NC(C)c2ccc(S(C)(=O)=O)cc2)nn2c(C)c(-c3ccc4ccccc4c3)[nH]c(=O)c12 (stereo not shown) [Example 3-23, 3,7-Dimethyl-N-[1-(4-methylsulfonylphenyl)ethyl]-6-(2-naphthyl)-4-oxo-5H-pyrazolo[1,5-a]pyrazine-2-carboxamide], the IC50 rises from 1.85 nM to 3.2 nM (1.7-fold).

Compared with Cc1ccc(-c2cn3nc(C(=O)N[C@@H](C)C4CC4)c(C(F)(F)F)c3c(=O)[nH]2)cc1Cl [6-164], Cc1ccc(-c2cn3nc(C(=O)NC(C)C4CCC4)c(C(F)(F)F)c3c(=O)[nH]2)cc1Cl (single isomer, unassigned) [6-194] is 2.5-fold higher in IC50: 1.04 nM for the first, 2.55 nM for the second.

First: CN1CC(NC(=O)c2nn3cc(-c4cc(F)c(Cl)c(F)c4)[nH]c(=O)c3c2C2CC2)(c2ccc(F)cc2)C1 [6-471]
Second: Cc1ccc(-c2cn3nc(C(=O)NC4(c5ccc(F)cc5)CN(C)C4)cc3c(=O)[nH]2)cc1Cl [6-123]
The IC50 of the first is 3.1-fold lower: 1.8 nM for the first, 5.63 nM for the second.

First: O=C(NC(CCn1cncn1)c1ccccc1)c1cc2c(=O)[nH]c(-c3ccc4c(c3)OCCO4)cn2n1 (stereo not shown) [6-47]
Second: Cc1cc(-c2cn3nc(C(=O)N[C@H](CCO)c4ccc(F)cc4)cc3c(=O)[nH]2)ccc1C(F)(F)F [Example 1-121, N-[(1R)-1-(4-Fluorophenyl)-3-hydroxpropyl]-6-[3-methyl-4-(trifluoromethyl)phenyl]-4-oxo-4,5-dihydropyrazolo[1,5-a]pyrazine-2-carboxamide]
The IC50 of the first is 1.9-fold lower: 2.17 nM for the first, 4.18 nM for the second. The first is the more potent here.

Compared with COc1cc(-c2cn3nc(C(=O)N[C@H](CCO)c4ccc(F)cc4)c(C4CC4)c3c(=O)[nH]2)ccc1Cl [6-482], CC(C)c1c(C(=O)N[C@H](CCO)c2ccc(F)cc2)nn2cc(-c3ccc(Cl)cc3)[nH]c(=O)c12 [6-670] is 4.2-fold higher in IC50: 0.48 nM for the first, 2 nM for the second. The first is the more potent here.

First: Cc1cc(-c2cn3nc(C(=O)NC4CC(F)(F)C4)c(C4CC4)c3c(=O)[nH]2)ccc1Cl [6-297]
Second: Cc1cc(-c2cn3nc(C(=O)NC(C)C4CCC4)c(C4CC4)c3c(=O)[nH]2)ccc1Cl (single isomer, unassigned) [6-300]
The IC50 of the first is 2.9-fold lower: 1.15 nM for the first, 3.3 nM for the second.

First: Cc1ccc(-c2cn3nc(C(=O)N[C@H](C)C4CC4)c(C4CC4)c3c(=O)[nH]2)cc1C [6-438]
Second: Cc1c(C(=O)NC(C)CC2CC2)nn2c(C)c(-c3ccc4ccccc4c3)[nH]c(=O)c12 (stereo not shown) [Example 3-10, N-(1-Cyclopropylpropan-2-yl)-3,7-dimethyl-6-(2-naphthyl)-4-oxo-4,5-dihydropyrazolo[1,5-a]pyrazine-2-carboxamide]
The IC50 of the first is 5-fold lower: 0.55 nM for the first, 2.75 nM for the second. The first is the more potent here.

Cc1cc(-c2cn3nc(C(=O)NC(c4ccc(F)cc4)C4(O)CC4)c(C(F)(F)F)c3c(=O)[nH]2)ccc1Cl (single isomer, unassigned) [6-212] and CC(NC(=O)c1nn2cc(-c3ccc4ccccc4c3)[nH]c(=O)c2c1C#N)c1cccc(Br)c1 (stereo not shown) [Example 3-47, N-[1-(3-Bromophenyl)ethyl]-3-cyano-6-(2-naphthyl)-4-oxo-5H-pyrazolo[1,5-a]pyrazine-2-carboxamide] are within 1.5-fold of each other in IC50: 8.15 nM for the first, 5.45 nM for the second.
